Source: patent publication US7713696B2, “Genetic markers for prognosis of antifolate treatment efficacy” (Academisch Zeikenhuis Leiden H.O.D.N. Lumc, priority 2006, dated 2010)

What was measured:
recent-onset RA patients [1] = experiment: Clinical response to methotrexate monotherapy (DAS) in genotyped patients of the BeSt trial; format: in vivo, human; details: for Good clinical response at six months, number of patients / Good clinical response at six months, percentage of patients: DAS≦2.4
Source text: The 247 patients enrolled in the study was a sub-cohort of 508 patients participating in the BeSt trial (25). Inclusion criteria for this trial were fulfilment of the American College of Rheumatology (ACR) 1987 criteria, age of 18 years or older, a disease duration of less than 2 years. All patients had to have an active disease defined as ≧6/66 swollen joints and ≧6/68 tender joints and either an ESR ≧28 mm/hr or a Visual Analogue Scale (VAS) for global health ≦20 mm (on a scale of 0-100, 0=worst, 100=best).
The BeSt trial is a randomized, multi-centre, single-blinded, clinical study comparing the clinical efficacy of four different treatment strategies in early rheumatoid arthritis; sequential monotherapy (n=126 starting with methotrexate), step-up to combination therapy with sulphasalazine (n=121 starting with methotrexate), initial combination therapy with methotrexate, sulphasalazine and a high tapered dose of prednisolone (n=133) or initial biologic therapy with infliximab and methotrexate (n=128). In the present study, only patients allocated to initial single use of methotrexate were selected (n=247).
The primary objective of treatment in the BeSt study was achieving good clinical response as defined by the DAS≦2.4 (26-28). The DAS is a validated composite outcome measure consisting of the Ritchie articular index (RAI), the number of swollen joints (SJC, out of 44), general well being as indicated by the patient on a visual analogue scale (VAS), and the Erythrocyte Sedimentation Rate (ESR). A research nurse who remained blinded for the allocated treatment group scored the DAS every three months.
All selected patients started with oral methotrexate 7.5 mg weekly, increased to 15 mg weekly after 4 weeks, combined with folic acid (1 mg per day). In case of insufficient clinical response at three months of follow-up (DAS>2.4), the dosage was increased stepwise to 25 mg weekly, either orally or parenterally as decided by the rheumatologist. If the clinical response remained insufficient with methotrexate 25 mg weekly, patients were treated according to the next step of the BeSt protocol; patients with methotrexate sequential monotherapy switched to sulphasalazine 1000 mg twice daily; patients with initial step-up combination therapy, sulphasalazine 1000 mg twice daily was added to methotrexate. Concomitant therapies with nonsteroidal anti-inflammatory drugs (NSAIDs), as well as intra-articular injections with corticosteroids, were allowed for all treatment groups. For current analysis, clinical data for the first six months of follow-up were used, representing methotrexate treatment only.
“Responders” were defined as patients with DAS ≦2.4 (good clinical response) based on EULAR response criteria (26-28) and ‘non-responders ’ as patients with DAS >2.4 at six months of follow up.
Differences in baseline characteristics were analysed by Student's t-test for continuous variables or Chi-square test for dichotomous variables. Differences in genotype distribution for response and toxicity were tested by 3 by 2 cross tabs for each genotype, and by 2 by 2 cross tabs for carriers versus non-carriers analysis with the two-sided Chi-square test. We used binary logistic analysis in case of differences in genotype distribution, to calculate odds ratios for achieving good response or experiencing adverse drug events. Age and gender were identified as possible confounders and were used as covariates in all regression analyses. The primary efficacy endpoint was good clinical response at six months (DAS≦2.4). DAS good clinical response status required patients to be present at a given time point; no values were carried forward. Secondary endpoints were good clinical improvement defined as change in DAS>1.2 (ΔDAS>1.2) and moderate clinical improvement defined as change in DAS>0.6 (ΔDAS>0.6). […]

[2] = tested on: Rheumatoid arthritis (RA) patients; details: literature refs 7-9; cited from earlier work
recent-onset RA patients [3] = experiment: Adverse drug events during six months of methotrexate therapy, BeSt trial; format: in vivo, human
Experimental: Toxicity was evaluated by counting each reported adverse drug event and its consequences for the patient and treatment. Adverse drug events were spontaneously reported by the patients, or were reported as a result of non-specific questioning on patients' well-being by the investigator, by physical examination or laboratory measurements during follow up. In case of adverse drug events, methotrexate was continued at the lowest tolerated dose, or if methotrexate was not tolerated at all, the DMARD therapy was adjusted according to the protocol. Of all reported adverse drug events, the following non-infectious adverse drug events were evaluated explicitly: gastrointestinal adverse drug events defined as patients' general well-being, nausea, vomiting, diarrhea, and constipation; liver adverse drug events defined as all cases of elevated functional liver enzymes resulting in methotrexate dose adjustment or discontinuation; pneumonitis; skin and mucosal disorders. Moreover, patients were evaluated for leucopenia (<4.10^9/L), ALAT 3 times upper limit of normal (>135 U/L) and for alkaline phosphatase (AF) 3 times the upper limit of normal (>360 U/L).
For toxicity analysis, all patients who altered therapy from methotrexate before six months of follow-up were verified for adverse drug events after change of therapy and included in the analysis. The analyses of laboratory measurements were performed for completers only. The toxicity regression analysis was tested for the following confounders: weight, creatinine clearance, methotrexate dosage group (15 or 25 mg) and use of alcohol.

[4] = all patients with toxicity data (n=200)

## CN(Cc1cnc2nc(N)nc(N)c2n1)c1ccc(C(=O)N[C@@H](CCC(=O)O)C(=O)O)cc1 [methotrexate]
recent-onset RA patients [1]; AMPD1 CC genotype, six months
  Good clinical response, Methotrexate 15 mg weekly, number of responders/patients: 25/36
  Good clinical response, Methotrexate 15 mg weekly, percentage: (69%)
  Good clinical response, Methotrexate 25 mg weekly, number of responders/patients: 30/98
  Good clinical response, Methotrexate 25 mg weekly, percentage: (31%)
recent-onset RA patients [1]; AMPD1 CC genotype
  Good clinical response at six months, number of patients: 57
  Good clinical response at six months, percentage of patients: (38%)
recent-onset RA patients [1]; AMPD1 CC genotyped patients
  good clinical response percentage at 6 months: 42%
recent-onset RA patients [1]; AMPD1 CT genotype, six months
  Good clinical response, Methotrexate 15 mg weekly, number of responders/patients: 15/15
  Good clinical response, Methotrexate 15 mg weekly, percentage: (100%)
  Good clinical response, Methotrexate 25 mg weekly, number of responders/patients: 13/29
  Good clinical response, Methotrexate 25 mg weekly, percentage: (45%)
recent-onset RA patients [1]; AMPD1 CT genotype
  Good clinical response at six months, number of patients: 28
  Good clinical response at six months, percentage of patients: (56%)
recent-onset RA patients [1]; AMPD1 T-allele and ATIC CC (n=22)
  percentage of good clinical response at six months: 68
recent-onset RA patients [1]; AMPD1 T-allele and ITPA CC (n=41)
  percentage of good clinical response at six months: 63
recent-onset RA patients [1]; AMPD1 T-allele carriers compared to AMPD1 CC, six months
  times more likely to achieve good clinical response: 2.1 times
recent-onset RA patients [1]; AMPD1 T-allelic carriers
  good clinical response percentage at 6 months: 60%
recent-onset RA patients [1]; AMPD1 TT genotype, six months
  Good clinical response, Methotrexate 15 mg weekly, number of responders/patients: 1/1
  Good clinical response, Methotrexate 15 mg weekly, percentage: (100%)
  Good clinical response, Methotrexate 25 mg weekly, number of responders/patients: 0/2
  Good clinical response, Methotrexate 25 mg weekly, percentage: (0%)
recent-onset RA patients [1]; AMPD1 TT genotype
  Good clinical response at six months, number of patients: 1
  Good clinical response at six months, percentage of patients: (33%)
recent-onset RA patients [1]; ATIC CC and ITPA CC (n=82)
  percentage of good clinical response at six months: 56
recent-onset RA patients [1]; ATIC CC genotype (n=97)
  patients in remission (DAS <1.6) at one-year of follow-up: 35%
recent-onset RA patients [1]; ATIC CC genotype, six months
  Good clinical response, Methotrexate 15 mg weekly, number of responders/patients: 22/25
  Good clinical response, Methotrexate 15 mg weekly, percentage: (88%)
  Good clinical response, Methotrexate 25 mg weekly, number of responders/patients: 28/61
  Good clinical response, Methotrexate 25 mg weekly, percentage: (46%)
recent-onset RA patients [1]; ATIC CC genotype
  Good clinical response at six months, number of patients: 51
  Good clinical response at six months, percentage of patients: (53%)
recent-onset RA patients [1]; ATIC CC patients
  good clinical response percentage at 6 months: 58%
recent-onset RA patients [1]; ATIC CG genotype, six months
  Good clinical response, Methotrexate 15 mg weekly, number of responders/patients: 15/22
  Good clinical response, Methotrexate 15 mg weekly, percentage: (68%)
  Good clinical response, Methotrexate 25 mg weekly, number of responders/patients: 14/60
  Good clinical response, Methotrexate 25 mg weekly, percentage: (23%)
recent-onset RA patients [1]; ATIC CG genotype
  Good clinical response at six months, number of patients: 30
  Good clinical response at six months, percentage of patients: (33%)
recent-onset RA patients [1]; ATIC G-allelic carriers
  good clinical response percentage at 6 months: 37%
recent-onset RA patients [1]; ATIC GG genotype, six months
  Good clinical response, Methotrexate 15 mg weekly, number of responders/patients: 4/5
  Good clinical response, Methotrexate 15 mg weekly, percentage: (80%)
  Good clinical response, Methotrexate 25 mg weekly, number of responders/patients: 2/9
  Good clinical response, Methotrexate 25 mg weekly, percentage: (22%)
recent-onset RA patients [1]; ATIC GG genotype
  Good clinical response at six months, number of patients: 6
  Good clinical response at six months, percentage of patients: (38%)
recent-onset RA patients [1]; ITPA A-allelic carriers
  good clinical response percentage at 6 months: 26%
recent-onset RA patients [1]; ITPA CA genotype, six months
  Good clinical response, Methotrexate 15 mg weekly, number of responders/patients: 3/5
  Good clinical response, Methotrexate 15 mg weekly, percentage: (60%)
  Good clinical response, Methotrexate 25 mg weekly, number of responders/patients: 4/22
  Good clinical response, Methotrexate 25 mg weekly, percentage: (18%)
recent-onset RA patients [1]; ITPA CA genotype
  Good clinical response at six months, number of patients: 7
  Good clinical response at six months, percentage of patients: (23%)
recent-onset RA patients [1]; ITPA CC genotype, six months
  Good clinical response, Methotrexate 15 mg weekly, number of responders/patients: 38/47
  Good clinical response, Methotrexate 15 mg weekly, percentage: (81%)
  Good clinical response, Methotrexate 25 mg weekly, number of responders/patients: 39/107
  Good clinical response, Methotrexate 25 mg weekly, percentage: (36%)
recent-onset RA patients [1]; ITPA CC genotype
  Good clinical response at six months, number of patients: 79
  Good clinical response at six months, percentage of patients: (45%)
recent-onset RA patients [1]; ITPA CC genotyped
  good clinical response percentage at 6 months: 50%
recent-onset RA patients [1]; overall population
  percentage responders (DAS≦2.4) at six months: 47%
recent-onset RA patients [1]; patients carrying all the favourable genotypes (n=16)
  response rate at six months: 88%
recent-onset RA patients [1]; patients carrying all the favourable genotypes (n=16), logistic regression
  odds ratio for achieving good clinical response: 27.8
recent-onset RA patients [1]; patients carrying all three unfavourable genotypes (n=10)
  response rate at six months: 10%
[2]
  patients showing good clinical response: about 40%
recent-onset RA patients [3]; AMPD1 CC genotype
  Adverse drug events at six months, number of patients with event/patients: 42/146
  Adverse drug events at six months, percentage of patients: (29%)
recent-onset RA patients [3]; AMPD1 CT genotype
  Adverse drug events at six months, number of patients with event/patients: 16/50
  Adverse drug events at six months, percentage of patients: (32%)
recent-onset RA patients [3]; AMPD1 TT genotype
  Adverse drug events at six months, number of patients with event/patients: 1/3
  Adverse drug events at six months, percentage of patients: (33%)
recent-onset RA patients [3]; ATIC CC genotype
  Adverse drug events at six months, number of patients with event/patients: 21/94
  Adverse drug events at six months, percentage of patients: (22%)
recent-onset RA patients [3]; ATIC CG genotype
  Adverse drug events at six months, number of patients with event/patients: 33/91
  Adverse drug events at six months, percentage of patients: (36%)
recent-onset RA patients [3]; ATIC G-allele carriers, six months, not significant after adjustment
  times more likely to experience any adverse drug event: 2 times
recent-onset RA patients [3]; ATIC GG genotype
  Adverse drug events at six months, number of patients with event/patients: 6/15
  Adverse drug events at six months, percentage of patients: (40%)
recent-onset RA patients [3]; ITPA CA genotype
  Adverse drug events at six months, number of patients with event/patients: 8/30
  Adverse drug events at six months, percentage of patients: (27%)
recent-onset RA patients [3]; ITPA CC genotype
  Adverse drug events at six months, number of patients with event/patients: 51/169
  Adverse drug events at six months, percentage of patients: (30%)
recent-onset RA patients [3]; [4]
  Gastrointestinal (general wellbeing, nausea, vomiting, diarrhoea, constipation), frequency at 6 months, number of patients: 26
  Gastrointestinal (general wellbeing, nausea, vomiting, diarrhoea, constipation), frequency at 6 months, percentage: (13.0%)
  Hepatic elevated liver enzymes, frequency at 6 months, number of patients: 16
  Hepatic elevated liver enzymes, frequency at 6 months, percentage: (8%)
  Overall adverse drug events, total population, frequency at 6 months, number of patients: 60
  Overall adverse drug events, total population, frequency at 6 months, percentage: (30%)
  Pneumonitis, frequency at 6 months, number of patients: 0
  Pneumonitis, frequency at 6 months, percentage: (0%)
  Skin and mucosa disorders, frequency at 6 months, number of patients: 17
  Skin and mucosa disorders, frequency at 6 months, percentage: (8.5%)
recent-onset RA patients [3]; n=60 of 200
  study population that experienced at least one adverse drug event during six months of treatment: Thirty
recent-onset RA patients [3]; non-responders carrying the ATIC G-allele compared to all ATIC G-allele carriers, 95% CI 1.1,7.5
  odds ratio for adverse drug events: 2.8
recent-onset RA patients [3]; patients with good clinical response at six months compared to non-responders, 95% CI 0.22, 0.91
  odds ratio for adverse drug events: 0.45
